Data from article PMC9822022, “Biginelli Reaction Synthesis of Novel Multitarget-Directed Ligands with Ca^2+ Channel Blocking Ability, Cholinesterase Inhibition, Antioxidant Capacity, and Nrf2 Activation” (Molecules, 2022).
“And” between values parts separate entries of the source, which are not always exact repeats. Identical values can stand only once.

What was measured:
[1] = molecular target: T1, hAChE (AChE from human erythrocytes) (Homo sapiens, UniProt P22303); assay: biochemical; type: biochemical; conditions: for IC50: ± SD
T1 construct: AChE from human erythrocytes; purchased Sigma Aldrich; host or cells: human erythrocytes (natural source)
Description: The inhibitory capacity of the compounds on AChE biological activity was evaluated using the spectrometric method of Ellman [27]. Acetyl- or butyrylthiocholine iodide and 5,5-dithiobis- (2-nitrobenzoic) acid (DTNB) were purchased from Sigma Aldrich. […] AChE from human erythrocytes (buffered aqueous solution, ≥500 units/mg protein (BCA), Sigma Aldrich) was diluted in 20 mM HEPES buffer, pH 8, 0.1% Triton X-100, to obtain an enzyme solution with 0.25 unit/mL enzyme activity. In the procedure, 100 µL of 0.3 mM DTNB dissolved in phosphate buffer pH 7.4 was added to the 96-well plate followed by 50 µL of test compound solution and 50 µL of enzyme (0.05 U final). After 5 min of preincubation at 25 °C, the reaction was then initiated by the injection of 50 µL of 10 mM acetyl- or butyrylthiocholine iodide solution. […] Assays were performed in singlicate during three independent tests, with a blank containing all components except acetyl- or butyrylthiocholine in order to account for non-enzymatic reaction. The reaction slopes were compared, and the percent inhibition due to the presence of test compounds was calculated by the following: 100 − (vi/v0 × 100) where vi is the rate calculated in the presence of inhibitor and v0 is the enzyme activity.

[2] = molecular target: eqBuChE (BuChE from equine serum) (Equus caballus, UniProt P81908); assay: biochemical; conditions: ± SD
[3] = test system: calcium channel; assay: Ca+2 channel blockade, FLIPR Calcium 6 in SH-SY5Y cells; type: cell-based; conditions: KCl/CaCl2 triggered, ± SD
Description: The Ca^+2 channel blockade capacity of compounds BIGI 4a-d and BIGI 5a-d, and nimodipine as standard, at 10 μM concentration was carried out following the usual methodology [28].
The evaluation of the calcium channel blockade of compounds BIGI 4a-d and BIGI 5a-d was carried out using FLIPR Calcium 6 indicator according to previously described protocols [35, 36]. In brief, FLIPR-loaded SH-SY5Y cells were exposed to nimodipine (10 µM, reference inhibitor), DMSO (0.1%, vehicle), or our compounds of interest (10 µM) for 10 min. […] Data were gathered in three independent experiments with eight technical replicates per experiment. Outlier detection by Grubbs’ test was performed and outlying values were excluded from further analysis.

[4] = ORAC-FL antioxidant assay; conditions: for ORAC: Trolox equivalents, mean (n = 3) ± SEM; for times less active than melatonin (ORAC): on average
Description: The antioxidant activity of compounds BIGI 4a-d and BIGI 5a-d was determined by the ORAC-FL method. [29] Their radical scavenging properties are expressed as Trolox equivalents (TE) units.
The antioxidant activity of hybrids BIGI 4a-d and BIGI 5a-d was measured by ORAC-FL assay using fluorescein as a fluorescent probe. Briefly, fluorescein and antioxidant were incubated in a black 96-well microplate (Nunc) for 15 min at 37 °C. 2,2′-Azobis(amidinopropane) dihydrochloride was then added quickly using the built-in injector of a Varioskan Flash plate reader (Thermo Scientific, Waltham, MA, USA). […] All the reactions were made in triplicate and at least three different assays were performed for each sample.

[5] = test system: Nrf2-ARE; assay: Nrf2/ARE-luciferase reporter cell assay; type: cell-based; conditions: for Induction of the Nrf2 transcriptional pathway: 24 h, 5, 10 and 50 μM (up to 100 μM for BIGI 5d); for CD (concentration required to double the specific luciferase reporter activity): 24 h treatment, means ± SEM
Description: The Nrf2-ARE-activating effect of BIGI 4b, BIGI 4d, BIGI 5b, and BIGI 5d, the most balanced compounds against cholinesterase inhibition, calcium channel blockade, and antioxidant power, was determined in vitro using a cell-based luciferase assay in the AREc32 cell line, which represents a good model for the redox-dependent activation of Nrf2 [31]. TBHQ was used as the positive control.
AREc32 cells were treated over 24 h with increasing concentrations of each compound (5, 10, 50, 100 μM) and then luciferase activity was measured. Preliminarily, the cytotoxicity of compounds against AREc32 cells were evaluated, showing no toxicity until 50 μM for compounds BIGI 4b, BIGI 4d, and BIGI 5b and until 100 μM for compound BIGI 5d.
CD values (i.e., the concentration required to double the specific activity of the luciferase reporter) were calculated to compare the relative potencies.
Treatment of stable ARE-luciferase reporter cells with the tested compounds and evaluation of the luciferase activity: The NRF2/ARE-luciferase reporter HEK293 stable cell line (Signosis, Santa Clara, CA, USA) was maintained in Dulbecco’s MEM high-glucose (DMEM) medium supplemented with 10% FBS and penicillin–streptomycin at 37 °C in 95% air/5% CO2. For treatment, the cells were seeded at a density of 2 × 10^4 per well in 96-well white microtiter plates. After 48 h, the culture medium was replaced with fresh DMEM supplemented with 0.1% FBS containing different concentrations of the tested compounds or DMSO (0.1%) in duplicate. Luciferase activity was measured after 24 h of treatment using the Bright-Glo luciferase assay system (Promega) according to the manufacturer’s instructions.

[6] = test system: AREc32 cells; assay: Cytotoxicity against reporter cells (MTT); type: cell-based
Description: […]. Preliminarily, the cytotoxicity of compounds against AREc32 cells were evaluated, showing no toxicity until 50 μM for compounds BIGI 4b, BIGI 4d, and BIGI 5b and until 100 μM for compound BIGI 5d.
Treatment of stable ARE-luciferase reporter cells with the tested compounds and evaluation of the cellular viability: The NRF2/ARE-luciferase reporter HEK293 stable cell line was seeded and treated as described for the luciferase activity determination, except that transparent culture plates were used instead of white plates. After 24 h of incubation with the tested compounds, the percent of cell viability was measured using MTT assay.

[7] = test system: Nrf2-ARE; design: method as in PMID 31838896; conditions: cited from earlier work

eqBuChE (BuChE from equine serum), sequence (P81908 whole entry): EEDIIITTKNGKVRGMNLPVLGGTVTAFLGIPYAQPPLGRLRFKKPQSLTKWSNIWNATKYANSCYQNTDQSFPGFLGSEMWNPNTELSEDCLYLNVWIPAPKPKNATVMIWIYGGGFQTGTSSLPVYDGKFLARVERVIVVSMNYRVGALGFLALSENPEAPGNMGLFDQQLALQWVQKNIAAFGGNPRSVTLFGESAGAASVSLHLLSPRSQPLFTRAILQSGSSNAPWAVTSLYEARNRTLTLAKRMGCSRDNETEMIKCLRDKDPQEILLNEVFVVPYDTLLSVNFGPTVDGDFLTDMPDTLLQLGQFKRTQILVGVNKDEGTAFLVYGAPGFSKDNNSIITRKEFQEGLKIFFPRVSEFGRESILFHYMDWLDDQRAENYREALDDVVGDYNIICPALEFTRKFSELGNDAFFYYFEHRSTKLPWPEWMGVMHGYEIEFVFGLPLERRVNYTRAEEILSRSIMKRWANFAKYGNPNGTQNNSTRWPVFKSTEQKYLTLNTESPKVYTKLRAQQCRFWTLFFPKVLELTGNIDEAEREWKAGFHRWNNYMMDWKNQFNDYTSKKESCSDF
T1 sequence (P22303 other isoform, or with tags, fused parts or gaps): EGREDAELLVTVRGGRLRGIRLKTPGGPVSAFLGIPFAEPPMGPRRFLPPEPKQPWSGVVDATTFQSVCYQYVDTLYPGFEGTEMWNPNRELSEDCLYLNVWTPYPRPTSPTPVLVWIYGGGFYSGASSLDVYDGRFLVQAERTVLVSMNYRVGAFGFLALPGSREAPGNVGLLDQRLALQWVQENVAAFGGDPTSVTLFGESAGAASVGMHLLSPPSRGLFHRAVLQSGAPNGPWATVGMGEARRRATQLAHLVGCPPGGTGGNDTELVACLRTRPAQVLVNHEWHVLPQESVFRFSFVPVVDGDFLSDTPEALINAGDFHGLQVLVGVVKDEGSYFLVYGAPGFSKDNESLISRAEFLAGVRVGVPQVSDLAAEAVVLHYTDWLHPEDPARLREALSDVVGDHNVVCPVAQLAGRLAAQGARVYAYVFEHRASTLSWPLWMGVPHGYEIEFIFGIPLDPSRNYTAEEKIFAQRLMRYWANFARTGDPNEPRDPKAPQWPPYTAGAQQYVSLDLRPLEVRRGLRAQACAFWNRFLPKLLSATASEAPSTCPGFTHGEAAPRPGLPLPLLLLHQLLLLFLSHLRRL

| Compound | IC50 [1] [µM] | IC50 [2] [µM] | Calcium Antagonism (% Inhibition at 10 μM) [3] [%] | ORAC [4] | fold less active than Donepezil (hAChE) [1] [fold] | Induction of the Nrf2 transcriptional pathway [5] | CD (concentration required to double the specific luciferase reporter activity) [5] | Cytotoxicity: no toxicity until concentration [6] [µM] | times less active than melatonin (ORAC) [4] [times] | fold less active than TBHQ (CD) [5] [fold] | times more active than melatonin (CD) [5] [times] | CD (concentration required to double the specific luciferase reporter activity) ([5]; listed as 5d) [µM] | CD [7] [µM] |
| --- | --- | --- | --- | --- | --- | --- | --- | --- | --- | --- | --- | --- | --- |
| C#CCOc1ccc(C2NC(=S)N(CC3CCN(Cc4ccccc4)CC3)C(C)=C2C(=O)OCC)cc1 (stereo not shown) [BIGI 5a, Ethyl 1-((1-benzylpiperidin-4-yl)methyl)-6-methyl-4-(4-(prop-2-yn-1-yloxy)phenyl)-2-thioxo-1,2,3,4-tetrahydropyrimidine-5-carboxylate] | > 1 | 7.64 ± 0.79 | 46 ± 18 | 1.35 ± 0.04 TE |  |  |  |  |  |  |  |  |  |
| C#CCOc1ccc(C2NC(=O)N(CCC3CCN(Cc4ccccc4)CC3)C(C)=C2C(=O)OCC)cc1 (stereo not shown) [BIGI 4b, Ethyl 1-(2-(1-benzylpiperidin-4-yl)ethyl)-6-methyl-2-oxo-4-(4-(prop-2-yn-1-yloxy)phenyl)-1,2,3,4-tetrahydropyrimidine-5-carboxylate] | 0.342 ± 0.064 | 4.78 ± 0.58 | 67 ± 10 | 1.60 TE and 1.60 ± 0.15 TE | 27 | able to successfully induce the Nrf2 transcriptional pathway | 7.1 µM and 7.1 ± 0.8 µM | 50 | ~1.4 |  |  |  |  |
| CC(C)(C)c1cc(O)ccc1O [TBHQ, reference compound] |  |  |  |  |  |  | 0.8 µM and 0.8 ± 0.2 µM |  |  |  |  |  |  |
| C#CCOc1ccc(C2NC(=O)N(CC3CCN(Cc4ccccc4)CC3)C(C)=C2C(=O)OCC)cc1 (stereo not shown) [BIGI 4a, Ethyl 1-((1-benzylpiperidin-4-yl)methyl)-6-methyl-2-oxo-4-(4-(prop-2-yn-1-yloxy)phenyl)-1,2,3,4-tetrahydropyrimidine-5-carboxylate] | > 1 | 31.2 ± 1.7 | 45 ± 11 | 1.44 ± 0.06 TE |  |  |  |  |  |  |  |  |  |
| C#CCCOc1ccc(C2NC(=S)N(CCC3CCN(Cc4ccccc4)CC3)C(C)=C2C(=O)OCC)cc1 (stereo not shown) [BIGI 5d, Ethyl 1-(2-(1-benzylpiperidin-4-yl)ethyl)-4-(4-(but-3-yn-1-yloxy)phenyl)-6-methyl-2-thioxo-1,2,3,4-tetrahydropyrimidine-5-carboxylate] | 1.271 ± 0.005 | 8.54 ± 0.71 | 68 ± 12 | 1.57 ± 0.13 TE |  | able to successfully induce the Nrf2 transcriptional pathway | 33.4 ± 4.8 µM | 100 |  | 42 | 2 | 33.4 |  |
| C#CCOc1ccc(C2NC(=S)N(CCC3CCN(Cc4ccccc4)CC3)C(C)=C2C(=O)OCC)cc1 (stereo not shown) [BIGI 5b, Ethyl 1-(2-(1-benzylpiperidin-4-yl)ethyl)-6-methyl-4-(4-(prop-2-yn-1-yloxy)phenyl)-2-thioxo-1,2,3,4-tetrahydropyrimidine-5-carboxylate] | 0.352 ± 0.015 | 5.43 ± 0.24 | 74 ± 16 | 1.41 ± 0.06 TE | 27 | able to successfully induce the Nrf2 transcriptional pathway | 13.5 µM and 13.5 ± 9.1 µM | 50 |  |  |  |  |  |
| C#CCCOc1ccc(C2NC(=O)N(CCC3CCN(Cc4ccccc4)CC3)C(C)=C2C(=O)OCC)cc1 (stereo not shown) [BIGI 4d, Ethyl 1-(2-(1-benzylpiperidin-4-yl)ethyl)-4-(4-(but-3-yn-1-yloxy)phenyl)-6-methyl-2-oxo-1,2,3,4-tetrahydropyrimidine-5-carboxylate] | 0.462 ± 0.04 | 6.63 ± 0.71 | 50 ± 13 | 1.85 TE and 1.85 ± 0.16 TE |  | able to successfully induce the Nrf2 transcriptional pathway | 7.7 µM and 7.7 ± 2.9 µM | 50 | ~1.4 |  |  |  |  |
| C#CCCOc1ccc(C2NC(=S)N(CC3CCN(Cc4ccccc4)CC3)C(C)=C2C(=O)OCC)cc1 (stereo not shown) [BIGI 5c, Ethyl 1-((1-benzylpiperidin-4-yl)methyl)-4-(4-(but-3-yn-1-yloxy)phenyl)-6-methyl-2-thioxo-1,2,3,4-tetrahydropyrimidine-5-carboxylate] | > 1 | 33.8 ± 7.89 | 63 ± 18 | 1.75 TE and 1.75 ± 0.06 TE |  |  |  |  | ~1.4 |  |  |  |  |
| COc1ccc2[nH]cc(CCNC(C)=O)c2c1 [Melatonin] |  |  |  |  |  |  |  |  |  |  |  |  | 60 |
| COCCOC(=O)C1=C(C)NC(C)=C(C(=O)OC(C)C)C1c1cccc([N+](=O)[O-])c1 (stereo not shown) [Nimodipine, reference compound] |  |  | 50± 10 |  |  |  |  |  |  |  |  |  |  |
| C#CCCOc1ccc(C2NC(=O)N(CC3CCN(Cc4ccccc4)CC3)C(C)=C2C(=O)OCC)cc1 (stereo not shown) [BIGI 4c, Ethyl 1-((1-benzylpiperidin-4-yl)methyl)-4-(4-(but-3-yn-1-yloxy)phenyl)-6-methyl-2-oxo-1,2,3,4-tetrahydropyrimidine-5-carboxylate] | > 1 | > 10 | 40± 13 | 0.98 ± 0.03 TE |  |  |  |  |  |  |  |  |  |
